# Data reported in article PMC6364417, “Kinase inhibitor library screening identifies synergistic drug combinations effective in sensitive and resistant melanoma cells” (Journal of Experimental & Clinical Cancer Research : CR, 2019).
# Columns and labels:
# Experiment in all cases: Kinase inhibitor library screening, PrestoBlue cell viability, 1 or 10 μM, 72 h
# [1] = test system: A375-XP cells (Vemurafenib-resistant); conditions: A375 XP
# [2] = test system: A375 cells (parental); conditions: A375 Parental
# [3] = test system: 501Mel-XP cells (Vemurafenib-resistant); conditions: 501Mel XP
# [4] = test system: IGR37 cells (parental); conditions: IGR37 Parental
# [5] = test system: IGR37-XP cells (Vemurafenib-resistant); conditions: IGR37 XP
# [6] = test system: 501Mel-GP cells (Dabrafenib-resistant); conditions: 501Mel GP
# [7] = test system: 501Mel cells (parental); conditions: 501Mel Parental
# Procedure, shortened: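 Normalised to untreated controls, viability percentages came from PrestoBlue measured on a microplate reader following 72 h incubation with drug. Each line was assayed at least twice.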
# [8] = test system: IGR37-GP cells (Dabrafenib-resistant); conditions: IGR37 GP
# [9] = test system: A375-GP cells (Dabrafenib-resistant); conditions: A375 GP
smiles,measurement,setting,value
Cc1cc2c(F)c(Oc3ncnn4cc(OC[C@@H](C)OC(=O)[C@H](C)N)c(C)c34)ccc2[nH]1 [Brivanib alaninate (BMS-582664)],cell viability (kinase inhibitor library screening),"[1]; 1μΜ, in %",105.2
same,cell viability (kinase inhibitor library screening),"[1]; 10μΜ, in %",81.3
same,cell viability (kinase inhibitor library screening),"[2]; 1μΜ, in %",104.1
same,cell viability (kinase inhibitor library screening),"[2]; 10μΜ, in %",82.8
same,cell viability (kinase inhibitor library screening),"[3]; 1μΜ, in %",97.0
same,cell viability (kinase inhibitor library screening),"[3]; 10μΜ, in %",83.1
same,cell viability (kinase inhibitor library screening),"[4]; 1μΜ, in %",107.1
same,cell viability (kinase inhibitor library screening),"[4]; 10μΜ, in %",96.2
same,cell viability (kinase inhibitor library screening),"[5]; 1μΜ, in %",99.9
same,cell viability (kinase inhibitor library screening),"[5]; 10μΜ, in %",74.9
same,cell viability (kinase inhibitor library screening),"[6]; 1μΜ, in %",107.2
same,cell viability (kinase inhibitor library screening),"[6]; 10μΜ, in %",88.2
same,cell viability (kinase inhibitor library screening),"[7]; 1μΜ, in %",99.4
same,cell viability (kinase inhibitor library screening),"[7]; 10μΜ, in %",91.7
same,cell viability (kinase inhibitor library screening),"[8]; 1μΜ, in %",99.8
same,cell viability (kinase inhibitor library screening),"[8]; 10μΜ, in %",95.3
same,cell viability (kinase inhibitor library screening),"[9]; 1μΜ, in %",98.8
same,cell viability (kinase inhibitor library screening),"[9]; 10μΜ, in %",80.1
CN(C)c1ccc(-c2nc3ncc(Cl)c(N4CCN(CC(=O)Nc5nccs5)CC4)c3[nH]2)cc1 [CCT129202],cell viability (kinase inhibitor library screening),"[1]; 1μΜ, 72 h",105.5%
same,cell viability (kinase inhibitor library screening),"[1]; 10μΜ, 72 h",49.9%
same,cell viability (kinase inhibitor library screening),"[2]; 10μΜ, 72 h",45.9%
same,cell viability (kinase inhibitor library screening),"[3]; 1μΜ, 72 h",85.2%
same,cell viability (kinase inhibitor library screening),"[3]; 10μΜ, 72 h",16.7%
same,cell viability (kinase inhibitor library screening),"[4]; 1μΜ, 72 h",95.8%
same,cell viability (kinase inhibitor library screening),"[4]; 10μΜ, 72 h",78.6%
same,cell viability (kinase inhibitor library screening),"[5]; 1μΜ, 72 h",96.6%
same,cell viability (kinase inhibitor library screening),"[5]; 10μΜ, 72 h",40.5%
same,cell viability (kinase inhibitor library screening),"[6]; 1μΜ, 72 h",99.5%
same,cell viability (kinase inhibitor library screening),"[6]; 10μΜ, 72 h",41.1%
same,cell viability (kinase inhibitor library screening),"[7]; 1μΜ, 72 h",93.7%
same,cell viability (kinase inhibitor library screening),"[7]; 10μΜ, 72 h",52.8%
same,cell viability (kinase inhibitor library screening),"[8]; 1μΜ, 72 h",88.1%
same,cell viability (kinase inhibitor library screening),"[8]; 10μΜ, 72 h",76.6%
same,cell viability (kinase inhibitor library screening),"[9]; 1μΜ, 72 h",104.8%
same,cell viability (kinase inhibitor library screening),"[9]; 10μΜ, 72 h",45.0%
Cc1cc(CN2CCN(c3c(Br)cnc4nc(-c5ccc(N6CCN(C)CC6)cc5)[nH]c34)CC2)no1 [CCT137690],cell viability (kinase inhibitor library screening),"[1]; 10μΜ, 72 h",0.9%
same,cell viability (kinase inhibitor library screening),"[2]; 10μΜ, 72 h",1.0%
same,cell viability (kinase inhibitor library screening),"[2]; 1μΜ, 72 h",56.7%
same,cell viability (kinase inhibitor library screening),"[3]; 1μΜ, 72 h",76.9%
same,cell viability (kinase inhibitor library screening),"[3]; 10μΜ, 72 h",-0.565%
same,cell viability (kinase inhibitor library screening),"[4]; 1μΜ, 72 h",91.0%
same,cell viability (kinase inhibitor library screening),"[4]; 10μΜ, 72 h",0.571%
same,cell viability (kinase inhibitor library screening),"[5]; 1μΜ, 72 h",93.1%
same,cell viability (kinase inhibitor library screening),"[5]; 10μΜ, 72 h",0.741%
same,cell viability (kinase inhibitor library screening),"[6]; 1μΜ, 72 h",95.4%
same,cell viability (kinase inhibitor library screening),"[6]; 10μΜ, 72 h",-0.454%
same,cell viability (kinase inhibitor library screening),"[7]; 1μΜ, 72 h",87.2%
same,cell viability (kinase inhibitor library screening),"[7]; 10μΜ, 72 h",0.283%
same,cell viability (kinase inhibitor library screening),"[8]; 1μΜ, 72 h",88.6%
same,cell viability (kinase inhibitor library screening),"[8]; 10μΜ, 72 h",1.7%
same,cell viability (kinase inhibitor library screening),"[9]; 1μΜ, 72 h",56.6%
same,cell viability (kinase inhibitor library screening),"[9]; 10μΜ, 72 h",0.6%
CN1CCN(c2cccc(Nc3nc4c(-c5ccc(S(C)(=O)=O)cc5)cccn4n3)c2)CC1 [CEP33779],"cell viability, A375 XP, 1μΜ","[1]; 1μΜ, 72 h, in %",100.1
same,"cell viability, A375 XP, 10μΜ","[1]; 10μΜ, 72 h, in %",88.6
same,"cell viability, A375 Parental, 10μΜ","[2]; 10μΜ, 72 h, in %",76.5
same,"cell viability, 501Mel XP, 1μΜ","[3]; 1μΜ, 72 h, in %",88.8
same,"cell viability, 501Mel XP, 10μΜ","[3]; 10μΜ, 72 h, in %",71.8
same,"cell viability, IGR37 Parental, 1μΜ","[4]; 1μΜ, 72 h, in %",103.9
same,"cell viability, IGR37 Parental, 10μΜ","[4]; 10μΜ, 72 h, in %",83.9
same,"cell viability, IGR37 XP, 10μΜ","[5]; 10μΜ, 72 h",28.8%
same,"cell viability, IGR37 XP, 1μΜ","[5]; 1μΜ, 72 h, in %",90.4
same,"cell viability, 501Mel GP, 10μΜ","[6]; 10μΜ, 72 h, in %",81.6
same,"cell viability, 501Mel Parental, 1μΜ","[7]; 1μΜ, 72 h, in %",94.5
same,"cell viability, 501Mel Parental, 10μΜ","[7]; 10μΜ, 72 h, in %",91.1
same,"cell viability, IGR37 GP, 10μΜ","[8]; 10μΜ, 72 h",67.9%
same,"cell viability, IGR37 GP, 1μΜ","[8]; 1μΜ, 72 h, in %",93.0
same,"cell viability, A375 GP, 10μΜ","[9]; 10μΜ, 72 h, in %",77.6
